Results as given in BindingDB's records for doi:10.1016/s0960-894x(03)00356-1 (Abbott Laboratories, 2003).
pKi: −log10 of the molar value.

Biological target: Histamine H3 receptor (Rattus norvegicus) (UniProt Q9QYN8)
Test: Compound was tested for its binding affinity towards rat cortical Histamine H3L receptor

Chain of Histamine H3 receptor (Rattus norvegicus) (Q9QYN8 whole entry, looked up): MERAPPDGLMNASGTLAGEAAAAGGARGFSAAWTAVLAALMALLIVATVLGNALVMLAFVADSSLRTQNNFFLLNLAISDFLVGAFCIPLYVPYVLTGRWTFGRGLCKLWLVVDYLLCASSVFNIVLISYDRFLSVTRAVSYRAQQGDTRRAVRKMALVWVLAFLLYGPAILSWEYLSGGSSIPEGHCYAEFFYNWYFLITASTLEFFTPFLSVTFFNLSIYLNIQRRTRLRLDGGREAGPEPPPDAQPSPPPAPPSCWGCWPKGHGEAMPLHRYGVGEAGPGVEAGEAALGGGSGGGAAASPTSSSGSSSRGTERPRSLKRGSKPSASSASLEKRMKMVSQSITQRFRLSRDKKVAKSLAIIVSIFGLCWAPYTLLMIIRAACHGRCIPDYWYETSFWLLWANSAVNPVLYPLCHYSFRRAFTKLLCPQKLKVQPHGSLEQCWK

pKi: 6.80
SMILES: CN(C)CCCNc1c2c(nc3c1CCCC3)CCCCC2
